Measurements: the supplement of paper PMC10307832

Assays:
Assay in all cases: relative viability (nuclei count vs DMSO), 5 days (fraction); higher = more cells survive
[1] = tested on: EKVX
Procedure, shortened: (§1)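 Lung cancer cell lines were seeded in 1536-well plates and dosed by pin tool the next day, with either a single drug or a fixed anchor-drug dose combined with five library-drug doses (not always all listed) spaced in √10 steps. Five days later, one step fixed the cells and stained their nuclei (final 0.05% Triton X-100, 1% formaldehyde, 1 ug/ml Hoechst), and nuclei were counted on 4× images. Relative viability is the nuclei count in treated wells divided by the count in vehicle wells, and each value is the median of duplicate plates.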

[2] = tested on: LCLC-97TM1
Procedure, shortened: as §1

[3] = tested on: NCI-H1437
Procedure, shortened: as §1

[4] = tested on: NCI-H1650
Procedure, shortened: as §1

[5] = tested on: NCI-H1666
Procedure, shortened: as §1

[6] = tested on: NCI-H1792
Procedure, shortened: as §1

[7] = tested on: NCI-H1915
Procedure, shortened: as §1

[8] = tested on: NCI-H1975
Procedure, shortened: as §1

[9] = tested on: NCI-H2342
Procedure, shortened: as §1

[10] = tested on: NCI-H23
Procedure, shortened: as §1

[11] = tested on: NCI-H322M
Procedure, shortened: as §1

[12] = tested on: NCI-H358
Procedure, shortened: as §1

[13] = tested on: NCI-H441
Procedure, shortened: as §1

[14] = tested on: NCI-H460
Procedure, shortened: as §1

[15] = tested on: NCI-H520
Procedure, shortened: as §1

[16] = tested on: NCI-H522
Procedure, shortened: as §1

[17] = tested on: NCI-H596
Procedure, shortened: as §1

[18] = tested on: NCI-H647
Procedure, shortened: as §1

[19] = tested on: NCI-H661
Procedure, shortened: as §1

[20] = tested on: NCI-H727
Procedure, shortened: as §1

[21] = tested on: NCI-H838
Procedure, shortened: as §1

[22] = tested on: PC-3 [JPC-3]
Procedure, shortened: as §1

[23] = tested on: SK-LU-1
Procedure, shortened: as §1

Cc1cn(-c2cc(NC(=O)c3ccc(C)c(Nc4nccc(-c5cccnc5)n4)c3)cc(C(F)(F)F)c2)cn1 [Nilotinib] + O=C(c1cc(Cc2n[nH]c(=O)c3ccccc23)ccc1F)N1CCN(C(=O)C2CC2)CC1 [Olaparib] (partner 8 µM)
relative viability ([1]; first compound 0.001 µM): 0.735
relative viability ([1]; first compound 0.003162 µM): 1.08
relative viability ([1]; first compound 0.01 µM): 1.23
relative viability ([1]; first compound 0.03162 µM): 0.834
relative viability ([1]; first compound 0.1 µM): 1.07
relative viability ([2]; first compound 0.001 µM): 0.339
relative viability ([2]; first compound 0.003162 µM): 0.467
relative viability ([2]; first compound 0.01 µM): 0.461
relative viability ([2]; first compound 0.03162 µM): 0.446
relative viability ([2]; first compound 0.1 µM): 0.343
relative viability ([3]; first compound 0.001 µM): 0.603
relative viability ([3]; first compound 0.003162 µM): 0.687
relative viability ([3]; first compound 0.01 µM): 0.654
relative viability ([3]; first compound 0.03162 µM): 0.548
relative viability ([3]; first compound 0.1 µM): 0.559
relative viability ([4]; first compound 0.001 µM): 0.776
relative viability ([4]; first compound 0.003162 µM): 0.948
relative viability ([4]; first compound 0.01 µM): 0.777
relative viability ([4]; first compound 0.03162 µM): 0.756
relative viability ([4]; first compound 0.1 µM): 1.08
relative viability ([5]; first compound 0.001 µM): 0.71
relative viability ([5]; first compound 0.003162 µM): 0.805
relative viability ([5]; first compound 0.01 µM): 0.803
relative viability ([5]; first compound 0.03162 µM): 0.778
relative viability ([5]; first compound 0.1 µM): 0.754
relative viability ([6]; first compound 0.001 µM): 0.312
relative viability ([6]; first compound 0.003162 µM): 0.535
relative viability ([6]; first compound 0.01 µM): 0.456
relative viability ([6]; first compound 0.03162 µM): 0.258
relative viability ([6]; first compound 0.1 µM): 0.319
relative viability ([7]; first compound 0.003162 µM): 0.267
relative viability ([7]; first compound 0.01 µM): 0.244
relative viability ([7]; first compound 0.03162 µM): 0.255
relative viability ([7]; first compound 0.1 µM): 0.187
relative viability ([8]; first compound 0.001 µM): 0.553
relative viability ([8]; first compound 0.003162 µM): 0.809
relative viability ([8]; first compound 0.01 µM): 0.786
relative viability ([8]; first compound 0.03162 µM): 0.491
relative viability ([8]; first compound 0.1 µM): 0.63
relative viability ([9]; first compound 0.001 µM): 0.399
relative viability ([9]; first compound 0.003162 µM): 0.457
relative viability ([9]; first compound 0.01 µM): 0.464
relative viability ([9]; first compound 0.03162 µM): 0.338
relative viability ([9]; first compound 0.1 µM): 0.418
relative viability ([10]; first compound 0.001 µM): 0.353
relative viability ([10]; first compound 0.003162 µM): 0.302
relative viability ([10]; first compound 0.01 µM): 0.321
relative viability ([10]; first compound 0.03162 µM): 0.295
relative viability ([10]; first compound 0.1 µM): 0.331
relative viability ([11]; first compound 0.001 µM): 0.737
relative viability ([11]; first compound 0.003162 µM): 0.712
relative viability ([11]; first compound 0.01 µM): 0.678
relative viability ([11]; first compound 0.03162 µM): 0.556
relative viability ([11]; first compound 0.1 µM): 0.818
relative viability ([12]; first compound 0.001 µM): 0.546
relative viability ([12]; first compound 0.003162 µM): 0.721
relative viability ([12]; first compound 0.01 µM): 0.813
relative viability ([12]; first compound 0.03162 µM): 0.52
relative viability ([12]; first compound 0.1 µM): 0.539
relative viability ([13]; first compound 0.001 µM): 0.419
relative viability ([13]; first compound 0.003162 µM): 0.807
relative viability ([13]; first compound 0.01 µM): 0.533
relative viability ([13]; first compound 0.03162 µM): 0.431
relative viability ([13]; first compound 0.1 µM): 0.534
relative viability ([14]; first compound 0.001 µM): 0.318
relative viability ([14]; first compound 0.003162 µM): 0.295
relative viability ([14]; first compound 0.01 µM): 0.496
relative viability ([14]; first compound 0.03162 µM): 0.27
relative viability ([14]; first compound 0.1 µM): 0.34
relative viability ([15]; first compound 0.001 µM): 0.321
relative viability ([15]; first compound 0.003162 µM): 0.293
relative viability ([15]; first compound 0.01 µM): 0.305
relative viability ([15]; first compound 0.03162 µM): 0.316
relative viability ([15]; first compound 0.1 µM): 0.294
relative viability ([16]; first compound 0.01 µM): 0.66
relative viability ([16]; first compound 0.03162 µM): 0.625
relative viability ([16]; first compound 0.1 µM): 0.565
relative viability ([17]; first compound 0.001 µM): 0.651
relative viability ([17]; first compound 0.003162 µM): 0.702
relative viability ([17]; first compound 0.01 µM): 0.711
relative viability ([17]; first compound 0.03162 µM): 0.646
relative viability ([17]; first compound 0.1 µM): 0.671
relative viability ([18]; first compound 0.001 µM): 0.527
relative viability ([18]; first compound 0.003162 µM): 0.735
relative viability ([18]; first compound 0.01 µM): 0.649
relative viability ([18]; first compound 0.03162 µM): 0.482
relative viability ([18]; first compound 0.1 µM): 0.544
relative viability ([19]; first compound 0.001 µM): 0.754
relative viability ([19]; first compound 0.003162 µM): 0.893
relative viability ([19]; first compound 0.01 µM): 0.949
relative viability ([19]; first compound 0.03162 µM): 0.672
relative viability ([19]; first compound 0.1 µM): 0.748
relative viability ([20]; first compound 0.001 µM): 0.574
relative viability ([20]; first compound 0.003162 µM): 0.847
relative viability ([20]; first compound 0.01 µM): 0.658
relative viability ([20]; first compound 0.03162 µM): 0.732
relative viability ([20]; first compound 0.1 µM): 0.732
relative viability ([21]; first compound 0.001 µM): 0.789
relative viability ([21]; first compound 0.003162 µM): 1.01
relative viability ([21]; first compound 0.01 µM): 0.878
relative viability ([21]; first compound 0.03162 µM): 0.838
relative viability ([21]; first compound 0.1 µM): 0.759
relative viability ([22]; first compound 0.001 µM): 1.05
relative viability ([22]; first compound 0.01 µM): 1.35
relative viability ([22]; first compound 0.03162 µM): 1.16
relative viability ([22]; first compound 0.1 µM): 0.829
relative viability ([23]; first compound 0.001 µM): 0.408
relative viability ([23]; first compound 0.003162 µM): 0.469
relative viability ([23]; first compound 0.01 µM): 0.541
relative viability ([23]; first compound 0.03162 µM): 0.354
relative viability ([23]; first compound 0.1 µM): 0.444
